Measurements as given in PMC7482845, “G10 is a direct activator of human STING” (PLoS ONE, 2020).
Read-outs that look alike come from different tables or passages of the source.

Tests used:
[1] = molecular target: T1, full length R232.hSTING (ER fraction of transfected HEK293T cells) (Homo sapiens, UniProt Q86WV6, H232R); assay: In vitro kinase assay, ER fraction with full length R232 STING plus recombinant TBK1; assay type: biochemical; settings: cell free, immunoblot
T1 construct: ER fraction (8mg/ml) containing full length STING from R232.hSTING; host or cells: ER fraction of R232.hSTING HEK293T cells
T1 sequence (Q86WV6 whole entry H232R): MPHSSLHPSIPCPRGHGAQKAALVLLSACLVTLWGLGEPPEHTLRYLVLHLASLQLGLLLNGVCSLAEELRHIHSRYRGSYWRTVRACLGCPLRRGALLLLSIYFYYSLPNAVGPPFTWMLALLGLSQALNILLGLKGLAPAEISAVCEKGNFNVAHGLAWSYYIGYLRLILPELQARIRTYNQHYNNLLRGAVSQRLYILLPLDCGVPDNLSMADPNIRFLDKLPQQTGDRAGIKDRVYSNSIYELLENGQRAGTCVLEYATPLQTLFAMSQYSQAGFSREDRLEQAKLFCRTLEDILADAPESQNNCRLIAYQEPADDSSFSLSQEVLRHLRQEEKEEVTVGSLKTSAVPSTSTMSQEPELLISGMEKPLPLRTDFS
Description: This was followed by homogenization 3 times with a 30 sec each pulse and 1 min cooling between each pulse. Homogenates were centrifuged at 5000g for 10 min at 4 °C to remove nuclei, mitochondria and cell membrane from the cytosolic fraction. Supernatant was further centrifuged at 100000g for 1 h at 4 °C to fractionate the ER containing cytosolic fraction. The pellet thus obtained was resuspended in homogenization buffer and washed by centrifugation at 100000g twice. Post washing, the ER fraction containing pellet was resuspended in ER buffer (final composition: 20 mM Tris-HCl, 100 mM NaCl, 5 mM MgCl2, 5 mM MnCl2, 20 mM beta Glycerophosphate, 0.2 mM Na3VO4, 1X protease inhibitor cocktail (Roche), pH 7.5) using a syringe fitted with a 26G needle passing through it several times till homogeneity. The protein content of the ER homogenate was estimated by the BCA method and aliquots were stored at -80 °C for further use. […]

R232.hSTING (CT26 cells) = molecular target: T2, R232.hSTING (CT26 cells) (Homo sapiens, UniProt Q86WV6, H232R); assay: Western blot of Hu-pSTING and pIRF3 in R232.hSTING.CT26 cells; assay type: cell-based; settings: immunoblot, 2 hours
T2 construct: expressed in transfected cells; host or cells: CT26 (murine)
T2 sequence (Q86WV6 whole entry H232R): as above
Description: 5 x 10^5 cells were seeded in 24-well plates in 500 μl growth medium and stimulated with novel compounds at 10μM. After 2 hours of treatment cells were harvested by centrifugation and cell pellets were lysed in RIPA buffer (20mM Tris-Cl, 150mM NaCl, 0.5mM EDTA, 1% NP40, 0.05% SDS) containing 1x phosphatase inhibitor cocktail 3 (Sigma) and 1x protease inhibitor (Roche) to extract the soluble fraction of protein. 10 μg of extracted protein was electrophoresed in 10% SDS-PAGE gels and transferred onto Immobilon-P membranes (Millipore).

[2] = molecular target: T3, R232 variant of human STING (Homo sapiens, UniProt Q86WV6, H232R); assay: Luciferase (ISRE.ISG reporter) assay in HEK293T cells stably expressing R232 hSTING; assay type: cell-based
T3 construct: the ER fraction from R232.STING transfected HEK293T cells which contained full length STING
T3 sequence (Q86WV6 whole entry H232R): as above
Text: (§1) • a) Stable STING expressing cells. Stable HEK293T STING-expressing cell lines were generated using plasmids purchased from Invivogen, CA, USA, that contain STING cDNA cloned into the pUNO-1 vector under the hEF1-HTLV promoter as well as the Blasticidin selection cassette. The human STING plasmids corresponding to the R232, H232 and HAQ variants were directly procured from Invivogen while the AQ and Q variants were created by mismatch PCR using cDNA from HAQ.STING and R232.STING variants respectively. These vectors were individually transfected into HEK293T cells using Lipofectamine (Invitrogen) and transfected cells were expanded under Blasticidin selection. These cells were further subjected to clonal selection using the limiting dilution method to obtain clonally pure populations of HEK293T cells expressing each of the five human STING variants. Clones with minimal ligand independent activation of STING were chosen for cellular experiments. • b) N-His R232.hSTING HEK293T cells. HEK293T cells stably expressing N-His R232.hSTING were generated by the following described method. N-His R232.hSTING.pcDNA Myc B plasmid was transfected into HEK293T cells using Lipofectamine reagent (Invitrogen) and the transfected cells were selected under Hygromycin. Stably STING expressing HEK293T cells thus selected were further subjected to single cell clonal selection using the limiting dilution method to obtain a clonally pure population of HEK293T cells expressing the human R232 STING variant.
[…] clonally selected HEK293T-hSTING-Luciferase cells or control HEK293T-Luciferase cells were seeded in 384-well plates in growth medium and stimulated with known STING agonists or novel compounds. […]

[3] = molecular target: H232 variant of human STING (Homo sapiens, UniProt Q86WV6); assay: Luciferase (ISRE.ISG reporter) assay in HEK293T cells stably expressing H232 hSTING; assay type: cell-based; settings: ISRE.ISG54 luciferase reporter, 18 hours, read-out: estimated EC50, H232 variant
Text: as §1, with “HEK293T cells stably expressing N-His R232.hSTING were generated by the following described method. N-His R232.hSTING.pcDNA Myc B plasmid was transfected into HEK293T cells using Lipofectamine reagent (Invitrogen) and the transfected cells were selected under Hygromycin. Stably STING expressing HEK293T cells thus selected were further subjected to single cell clonal selection using the limiting dilution method to obtain a clonally pure population of HEK293T cells expressing the human R232 STING variant.” left out
(§2) […] clonally selected HEK293T-hSTING-Luciferase cells or control HEK293T-Luciferase cells were seeded in 384-well plates in growth medium and stimulated with known STING agonists or novel compounds. Supernatants were removed after 20 hours of treatment and secretory reporter gene activity was measured using the Quanti-Luc detection system (Invivogen) on a Spectramax i3X luminometer.

[4] = molecular target: T4, AQ variant of human STING (Homo sapiens, UniProt Q86WV6, G230A/R293Q); assay: Luciferase (ISRE.ISG reporter) assay in HEK293T cells stably expressing AQ hSTING; assay type: cell-based
T4 construct: expressed in transfected cells
T4 sequence (Q86WV6 whole entry G230A/R293Q): as the sequence (Q86WV6 whole entry H232R) above, with G230A, R232H, R293Q counted along it
Text: as §1, with “HEK293T cells stably expressing N-His R232.hSTING were generated by the following described method. N-His R232.hSTING.pcDNA Myc B plasmid was transfected into HEK293T cells using Lipofectamine reagent (Invitrogen) and the transfected cells were selected under Hygromycin. Stably STING expressing HEK293T cells thus selected were further subjected to single cell clonal selection using the limiting dilution method to obtain a clonally pure population of HEK293T cells expressing the human R232 STING variant.” left out
as §2

[5] = test system: ligand binding domain of the R232 variant of STING; parameters: method as in PMID 26646986; settings: cited from earlier work
THP1 cells = test system: THP1 cells; parameters: method as in PMID 26646986; settings: cited from earlier work
[6] = molecular target: R232 STING (R232-HEK293T cells) (Homo sapiens, UniProt Q86WV6, H232R); assay: Ligand induced change in STING melting temperature, R232-HEK293T whole cells; settings: whole cells (S8 and S9 Figs)
Chain of R232 STING (R232-HEK293T cells) (Q86WV6 whole entry H232R, the tested form may be a part): as the sequence (Q86WV6 whole entry H232R) above
Description: Two sources of STING (ER fraction of N-His R232.hSTING HEK293T and R232.hSTING HEK293T whole cells) were used for melting temperature experiments. […] (b) 5 x 10^5 R232.hSTING cells were seeded in 24-well plates in 500 μl growth medium and stimulated with serially diluted concentrations of agonist. After 2hr of stimulation cells were harvested through centrifugation and 20 μl cells suspensions were transferred into 0.2 ml PCR-tubes and heated as above. All procedures were identical post-heating of samples. […] Precipitated proteins were separated from the soluble fraction by centrifugation at 21000g for 20 min at 4 °C. Extracted soluble protein was electrophoresed in 10% SDS-PAGE gels and transferred onto Immobilon-P membranes (Millipore). Blots were incubated with antibodies specific for total STING (Cell Signaling).

[7] = molecular target: T5, recombinant CTT domain of R232 STING (Homo sapiens, UniProt Q86WV6, H232R); assay: In vitro kinase assay, recombinant CTT domain of R232 STING plus recombinant TBK1; assay type: biochemical; settings: cell free, immunoblot
T5 construct: corresponding to the soluble domain of STING (138 to 379 aa) protein; purchased Cayman Chemicals (STING); Invitrogen (TBK1) 22816 (STING); A31514 (TBK1)
T5 sequence (Q86WV6 138-379 H232R): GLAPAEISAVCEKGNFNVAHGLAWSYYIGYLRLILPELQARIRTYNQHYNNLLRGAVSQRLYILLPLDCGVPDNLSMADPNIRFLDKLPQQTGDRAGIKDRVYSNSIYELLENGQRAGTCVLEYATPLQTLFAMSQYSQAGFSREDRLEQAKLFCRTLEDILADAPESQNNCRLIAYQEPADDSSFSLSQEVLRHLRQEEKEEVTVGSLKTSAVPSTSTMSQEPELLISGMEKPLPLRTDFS
Description: 50ng of recombinant STING protein (Cayman Chemicals Cat# 22816) corresponding to the soluble domain of STING (138 to 379 aa) protein or 1 μl of ER fraction (8mg/ml) containing full length STING from R232.hSTING was incubated with 20 ng of recombinant full length TBK1 protein (Invitrogen, Cat# A31514) in the presence/absence of test compound in 20 μl reaction buffer (50mM Tris-HCl of pH 7.4, 100mM NaCl, 5mM MgCl2, 5mM MnCl2, 10% glycerol, 0.2mM Na3VO4, 20mM β-glycero-PO4, 0.5mM ATP) and 0.01% BSA at 30 °C for 45 min. The reaction was quenched by addition of 2 μl of 10X EDTA to a final concentration of […]. Samples were treated with 4x gel loading dye followed by electrophoresis in 10% SDS-PAGE gels and transferred to Immobilon-P membranes (Millipore). […] Anti-rabbit HRP labelled secondary antibody (Abcam) and Clarity Max™ western ECL substrate (Biorad, Cat# 1705062) were used for visualization of bands using a BioRad XRS plus imager.

SMILES: O=C(NCc1ccco1)c1ccc2c(c1)N(Cc1c(F)cccc1Cl)C(=O)CS2 [Compound G10, 4-(2-Chloro-6-fluorobenzyl)-N-(furan-2-ylmethyl)-3-oxo-3,4-dihydro-2H-benzo[b][1,4]thiazine-6-carboxamide]
- formation of pSTING by TBK1, ER fraction with full length R232 STING [1]: activated
- phosphorylated hSTING (and mIRF3) in CT26 cells overexpressing R232.hSTING (R232.hSTING (CT26 cells)): significant amounts
- EC50 ([2]; HEK293T cells expressing R232 hSTING, luciferase reporter, read-out: HEK.R232 EC50): 2.49 µM
- EC50 ([2]; ISRE.ISG54 luciferase reporter, HEK293T, 18 hours, read-out: estimated EC50, R232 variant): 2.5 µM
- EC50 [3]: 4.3 µM
- activity against the AQ variant [4]: barely active
- direct engagement with ligand binding domain of R232 STING (DSF) [5]: no evidence of direct engagement
- activation of IRF3 or NFκB linked reporters in THP1 (THP1 cells): unable to activate
- ligand induced change in STING melting temperature, R232-HEK293T cells [6]: did not demonstrate a significant ligand induced change
- formation of pSTING by TBK1, recombinant CTT domain of R232 STING [7]: activated
